Key:
Assay type in all cases: functional
P388 [1] = test: Antileukemic activity against mouse P388 cells allografted in mouse assessed as increase in host survival at 0.5 mg/kg relative to control
P388 [2] = test: Antileukemic activity against mouse P388 cells allografted in mouse assessed as increase in host survival at 8 mg/kg relative to control
P388 [3] = test: Antileukemic activity against mouse P388 cells allografted in mouse assessed as increase in host survival at 4 mg/kg relative to control
P388 [4] = test: Antileukemic activity against mouse P388 cells allografted in mouse assessed as increase in host survival at 2 mg/kg relative to control
P388 [5] = test: Antileukemic activity against mouse P388 cells allografted in mouse assessed as increase in host survival at 1 mg/kg relative to control
P388 [6] = test: Antileukemic activity against mouse P388 cells allografted in mouse assessed as increase in host survival at 5 mg/kg relative to control
P388 [7] = test: Antileukemic activity against mouse P388 cells allografted in mouse assessed as increase in host survival at 10 mg/kg relative to control
P388 [8] = test: Antileukemic activity against mouse P388 cells allografted in mouse assessed as increase in host survival at 2.5 mg/kg relative to control
P388 [9] = test: Antileukemic activity against mouse P388 cells allografted in mouse assessed as increase in host survival at 1.25 mg/kg relative to control
P388 [10] = test: Antileukemic activity against mouse P388 cells allografted in mouse assessed as increase in host survival at 0.25 mg/kg relative to control

SMILES	T/C (P388 [1]) [%]	T/C (P388 [2]) [%]	T/C (P388 [3]) [%]	T/C (P388 [4]) [%]	T/C (P388 [5]) [%]	T/C (P388 [6]) [%]	T/C (P388 [7]) [%]	T/C (P388 [8]) [%]	T/C (P388 [9]) [%]	T/C (P388 [10]) [%]
CC(=O)O[C@@H]1C(=O)C=C(C)[C@@H]2[C@@H](OC(=O)C=C(C)C)[C@H]3OC(=O)C[C@H]4[C@@H](C)[C@@H](O)[C@]5(O)OC[C@]34[C@H]5[C@@]12C	118	142	142	132	121					
CC(=O)OC[C@]12[C@@H]3OC(=O)C[C@H]1[C@@H](C)[C@@H](OC(C)=O)C(=O)[C@@H]2[C@@]1(C)[C@H](OC(C)=O)C(=O)C=C(C)[C@@H]1[C@H]3OC(=O)C=C(C)C	100	102	101	102	97					
CC(=O)O[C@@H]1[C@H](C)[C@@H]2CC(=O)O[C@@H]3[C@H](OC(=O)C=C(C)C)[C@H]4C(C)=CC(=O)[C@@H](OC(C)=O)[C@]4(C)[C@H]4[C@@]1(O)OC[C@@]342						107	107	107	104	
CC(C)=CC(=O)O[C@@H]1[C@H]2C(C)=CC(=O)[C@H](O)[C@]2(C)[C@H]2[C@]3(O)OC[C@@]24[C@@H]1OC(=O)C[C@H]4[C@@H](C)[C@H]3O	161			191	198					145

From ChEMBL document CHEMBL3243956, “Plant antitumor agents. 17. Structural requirements for antineoplastic activity in quassinoids” (1978)
